As usually defined, the IC50 is the concentration at which inhibition is half-maximal.

The experiment has as its target T1, PI3K-Alpha kinase H1047R mutant (Homo sapiens, UniProt P42336, H1047R).
T1 construct: host or cells: MDA-MB-453
Put plainly: PI3K-Alpha Kinase (PIK3CA) Activity, H1047R Mutant In Vitro Cell Based Assay (MDA-MB-453 cells, AlphaLisa SureFire Ultra). The note with it: 0% FBS, 3 hours treatment, relative IC50. As to the method:
PI3K-Alpha Kinase (PIK3CA) Activity, H1047R Mutant In Vitro Cell Based Assay and Determining IC50 Values for Inhibitors
The MDA-MB-453 (ATCC-HTB-131) cell line was obtained from the American Type Culture Collection (Manassas, VA). Cells were maintained in Dulbecco's Modified Eagle Media (DMEM, Gibco 11965-092) supplemented with 10% Fetal Bovine Serum, heat inactivated (FBS HI, Gibco 10082-147), 1× non-essential amino acids (NEAA, Gibco 11140-050), and 1 mM sodium pyruvate (Gibco 11360-070). Cultures were maintained in a humidified incubator at 37° C. under 5% CO2/95% air.
For compound testing in 0% FBS, MDA-MB-453 cells were seeded at a density of 1.5×10^4 cells per well in white 384-well plates in 20 μl of Minimum Essential Media (MEM) assay media with 1×NEAA, 1 mM sodium pyruvate, and 1 μg/mL human insulin (Sigma I9278). Compounds dissolved in 10 mM stock solutions in DMSO were serially diluted 1:3 in DMSO to generate a 10-point dilution series and plated using an acoustic liquid handler system (Echo 550 Series Liquid Handler, Labcyte). A 5× intermediate compound dilution plate in MEM with 1×NEAA and 1 mM sodium pyruvate (150 μM starting compound concentration in 1.5% DMSO) was then prepared. Five μl of the intermediate serially diluted compounds were added to the cell plate to final concentrations ranging from […] in 0.3% DMSO. 0.3% DMSO alone was used to establish the maximum (MAX) signal and GDC-0032 at a final concentration of 1 μM was used as a reference compound for the minimum (MIN) signal. After 3 hours treatment, the medium was removed, and the cells lysed in 10 μL of 1× SureFire Lysis buffer with shaking for 10 minutes at room temperature. The Acceptor Mix (Reaction Buffer 1+Reaction Buffer 2+Activation Buffer+SureFire Ultra Acceptor Beads) was prepared by diluting Activation buffer 25-fold in combined Reaction Buffer 1 and Reaction Buffer 2. The Acceptor beads were diluted 50-fold in the combined Reaction Buffers. Five μL of Acceptor Mix was added to each well, the plate was sealed and covered with foil and incubated for 1 hour at room temperature. The Donor Mix (dilution buffer+SureFire Ultra Donor Beads) was prepared by diluting Donor Beads 50-fold in dilution buffer. Five μL of the Donor Mix was added to each well and the plate sealed and covered with foil and incubated for 1 hour at room temperature in the dark. The plates were read on a Neo2 plate reader instrument from Biotek using standard AlphaLisa settings. Compounds were tested in duplicate and the average % inhibition at each compound concentration was used to generate a single dose response curve. The data were processed using the Genedata-Screener tool. Relative IC50 values were determined using luminescence units by calculating percent inhibition with respect to the in-plate “MIN” (GDC-0032 reference control) and “MAX” (DMSO) controls. The data was analyzed using a 4-parameter nonlinear logistic equation (four-parameter logistic concentration-response curve):
Y=bottom+[(top−bottom)/1+(X/IC50)slope]
where Y=% inhibition, X=concentration of inhibitor, bottom=minimum value of y attained by curve-fit, top=maximum value of y attained by curve-fit and slope=steepness of curve at the IC50.
% Inhibition=[(signal at X−median Min)/(median Max−median Min)]×100
IC50: concentration of compound that reduces a given response (ligand binding, enzyme response) by 50%. Relative IC50: concentration giving half the compound's maximum response.
Background: Alpha assays give light when donor and acceptor beads are brought close together.

T1 sequence (P42336 whole entry H1047R): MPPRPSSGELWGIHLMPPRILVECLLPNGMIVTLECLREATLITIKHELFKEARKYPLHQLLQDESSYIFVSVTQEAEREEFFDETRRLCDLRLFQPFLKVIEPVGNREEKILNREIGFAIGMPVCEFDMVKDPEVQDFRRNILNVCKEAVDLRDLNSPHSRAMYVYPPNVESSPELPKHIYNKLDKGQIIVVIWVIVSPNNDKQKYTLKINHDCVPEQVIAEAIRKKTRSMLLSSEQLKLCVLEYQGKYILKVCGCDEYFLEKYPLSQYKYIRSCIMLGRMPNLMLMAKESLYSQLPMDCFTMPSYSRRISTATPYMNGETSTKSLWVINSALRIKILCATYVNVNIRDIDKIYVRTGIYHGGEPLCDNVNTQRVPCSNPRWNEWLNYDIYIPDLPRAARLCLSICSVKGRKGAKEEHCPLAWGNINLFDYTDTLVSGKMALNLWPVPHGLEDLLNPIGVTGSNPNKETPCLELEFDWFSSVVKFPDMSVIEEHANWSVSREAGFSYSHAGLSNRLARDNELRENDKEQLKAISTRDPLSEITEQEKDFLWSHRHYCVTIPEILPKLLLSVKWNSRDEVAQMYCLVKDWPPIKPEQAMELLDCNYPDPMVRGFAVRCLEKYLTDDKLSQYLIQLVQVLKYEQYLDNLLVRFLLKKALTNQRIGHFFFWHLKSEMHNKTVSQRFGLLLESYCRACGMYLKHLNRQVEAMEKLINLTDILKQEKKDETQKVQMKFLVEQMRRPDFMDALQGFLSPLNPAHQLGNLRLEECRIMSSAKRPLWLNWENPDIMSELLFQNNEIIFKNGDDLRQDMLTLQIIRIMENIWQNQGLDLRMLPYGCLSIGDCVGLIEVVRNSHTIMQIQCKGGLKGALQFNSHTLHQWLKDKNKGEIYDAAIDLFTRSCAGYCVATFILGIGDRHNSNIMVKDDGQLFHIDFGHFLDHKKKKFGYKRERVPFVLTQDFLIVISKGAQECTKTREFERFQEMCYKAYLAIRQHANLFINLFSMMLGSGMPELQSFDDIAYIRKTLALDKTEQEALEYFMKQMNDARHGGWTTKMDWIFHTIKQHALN
T1 sequence (P27986 whole entry partner): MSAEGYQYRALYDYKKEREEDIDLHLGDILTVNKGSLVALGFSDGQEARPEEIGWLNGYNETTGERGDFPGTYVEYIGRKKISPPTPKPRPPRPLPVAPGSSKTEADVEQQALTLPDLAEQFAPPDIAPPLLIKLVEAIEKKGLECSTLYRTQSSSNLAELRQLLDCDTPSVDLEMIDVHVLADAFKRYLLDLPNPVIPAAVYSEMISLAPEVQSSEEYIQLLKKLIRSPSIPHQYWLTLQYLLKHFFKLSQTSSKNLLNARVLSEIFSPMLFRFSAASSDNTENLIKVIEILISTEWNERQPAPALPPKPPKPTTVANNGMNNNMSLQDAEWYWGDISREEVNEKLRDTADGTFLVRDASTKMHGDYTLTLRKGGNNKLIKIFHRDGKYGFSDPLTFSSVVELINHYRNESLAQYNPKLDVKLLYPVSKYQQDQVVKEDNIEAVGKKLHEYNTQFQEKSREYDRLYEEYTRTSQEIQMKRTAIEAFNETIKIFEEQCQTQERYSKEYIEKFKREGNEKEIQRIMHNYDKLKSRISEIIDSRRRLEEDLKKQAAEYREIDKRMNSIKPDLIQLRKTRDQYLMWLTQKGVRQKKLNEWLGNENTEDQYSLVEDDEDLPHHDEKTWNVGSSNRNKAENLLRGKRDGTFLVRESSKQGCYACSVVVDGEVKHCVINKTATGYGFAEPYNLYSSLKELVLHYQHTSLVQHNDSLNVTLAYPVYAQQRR

`Cc1cc(C(C)Nc2ccccc2-n2cnnn2)c2oc(-c3ccccc3)c(C)c(=O)c2c1` (single isomer, unassigned) [Example 24A, 3,6-Dimethyl-2-phenyl-8-[1-[2-(tetrazol-1-yl)anilino]ethyl]chromen-4-one] came in with an IC50 of less than 500 nM.
The result for `Cc1cc(C(C)Nc2cccc3c2C(=O)C(=O)N3)c2oc(-c3ccccc3)c(C)c(=O)c2c1` (single isomer, unassigned) [Example 27A] reads less than 1000 nM; that for `Cc1cc(C(C)Nc2ccc(Cl)nc2-c2ccccc2F)c2oc(-c3cccnc3)c(C)c(=O)c2c1` (single isomer, unassigned) [Example 219C, 8-[1-[[6-Chloro-2-(2-fluorophenyl)-3-pyridyl]amino]ethyl]-3,6-dimethyl-2-(3-pyridyl)chromen-4-one], less than 500 nM.
Molecule `Cc1cc(C(C)Nc2ccc(Cl)nc2-c2ccc(=O)[nH]c2)c2oc(-c3cccnc3)c(C)c(=O)c2c1` (single isomer, unassigned) [Example 222C, 5-[6-Chloro-3-[1-[3,6-dimethyl-4-oxo-2-(3-pyridyl)chromen-8-yl]ethylamino]-2-pyridyl]-1H-pyridin-2-one] showed a half-inhibitory concentration (IC50) of less than 500 nM.
Molecule `Cc1cc([C@@H](C)Nc2cccnc2C)c2oc(-c3cccnc3)c(C)c(=O)c2c1` [Example 9B, 3,6-Dimethyl-8-[(1R)-1-[(2-methyl-3-pyridyl)amino]ethyl]-2-(3-pyridyl)chromen-4-one] registered an IC50 of less than 500 nM.
The result for `Cc1cc([C@@H](C)Nc2ccc(Cl)nc2C)c2oc(-c3cccnc3)c(C)c(=O)c2c1` [Example 10B, 8-[(1R)-1-[(6-Chloro-2-methyl-3-pyridyl)amino]ethyl]-3,6-dimethyl-2-(3-pyridyl)chromen-4-one] reads less than 500 nM.
The result for `Cc1cc([C@@H](C)Nc2ccc(Cl)cc2)c2oc(-c3ccccc3)c(C)c(=O)c2c1` [Example 12B, 8-[(1R)-1-(4-Chloroanilino)ethyl]-3,6-dimethyl-2-phenyl-chromen-4-one] reads less than 1000 nM.
With `Cc1cc([C@@H](C)Nc2ccc(Cl)nc2)c2oc(-c3ccccc3)c(C)c(=O)c2c1` [Example 14B, 8-[(1R)-1-[(6-Chloro-3-pyridyl)amino]ethyl]-3,6-dimethyl-2-phenyl-chromen-4-one], the IC50 was less than 500 nM.
The result for `Cc1cc([C@@H](C)Nc2ccc(Cl)nc2)c2oc(-c3ccc(CN(C)C)cc3)c(C)c(=O)c2c1` [Example 22B, 8-[(1R)-1-[(6-Chloro-3-pyridyl)amino]ethyl]-2-[4-[(dimethylamino)methy1]phenyl]-3,6-dimethyl-chromen-4-one] reads less than 500 nM.
In turn, `Cc1cc(C(C)Nc2ccccc2S(N)(=O)=O)c2oc(-c3ccccc3)c(C)c(=O)c2c1` (stereo not shown) [Example 32A, 2-[1-(3,6-Dimethyl-4-oxo-2-phenyl-chromen-8-yl)ethylamino]benzenesulfonamide] had an IC50 of less than 500 nM.
For `Cc1cc([C@@H](C)Nc2cccnc2-c2ncon2)c2oc(-c3ccccc3)c(C)c(=O)c2c1` [Example 53C, 3,6-Dimethyl-8-[(1R)-1-[[2-(1,2,4-oxadiazol-3-yl)-3-pyridyl]amino]ethyl]-2-phenyl-chromen-4-one], the IC50 is less than 500 nM.
`Cc1cc([C@@H](C)Nc2ccccc2C(=O)C=S(C)(C)=O)c2oc(-c3ccccc3)c(C)c(=O)c2c1` [Example 54C, 8-[(1R)-1-[2-[2-[Dimethyl(oxo)-lambda6-sulfanylidene]acetyl]anilino]ethyl]-3,6-dimethyl-2-phenyl-chromen-4-one] gave an IC50 of less than 500 nM.
Regarding `Cc1cc([C@@H](C)Nc2cccnc2-c2n[nH]c(=O)[nH]2)c2oc(-c3ccccc3)c(C)c(=O)c2c1` [Example 63A, 3-[3-[[(1R)-1-(3,6-Dimethyl-4-oxo-2-phenyl-chromen-8-yl)ethyl]amino]-2-pyridyl]-1,4-dihydro-1,2,4-triazol-5-one], the IC50 was less than 500 nM.
For the molecule `Cc1cc([C@@H](C)Nc2ccccc2-c2ncco2)c2oc(-c3ccccc3)c(C)c(=O)c2c1` [Example 65A, 3,6-Dimethyl-8-[(1R)-1-(2-oxazol-2-ylanilino)ethyl]-2-phenyl-chromen-4-one], the concentration for half-maximal inhibition (IC50) is less than 1000 nM.
Molecule `Cc1cc([C@@H](C)Nc2ccccc2-c2nncn2C)c2oc(-c3ccccc3)c(C)c(=O)c2c1` [Example 66A, 3,6-Dimethyl-8-[(1R)-1-[2-(4-methyl-1,2,4-triazol-3-yl)anilino]ethyl]-2-phenyl-chromen-4-one] gave an IC50 of less than 500 nM.
On to `Cc1cc([C@@H](C)Nc2ccccc2-c2cncn2C)c2oc(-c3ccccc3)c(C)c(=O)c2c1` [Example 68A, 3,6-Dimethyl-8-[(1R)-1-[2-(3-methylimidazol-4-yl)anilino]ethyl]-2-phenyl-chromen-4-one], for which the IC50 is less than 500 nM.
The result for `Cc1cc([C@@H](C)Nc2ccccc2-c2cncs2)c2oc(-c3cccnc3)c(C)c(=O)c2c1` [Example 72A, 3,6-Dimethyl-2-(3-pyridyl)-8-[(1R)-1-(2-thiazol-5-ylanilino)-ethyl]chromen-4-one] reads less than 500 nM.
The result for `Cc1cc([C@@H](C)Nc2ccccc2-c2ccns2)c2oc(-c3cccnc3)c(C)c(=O)c2c1` [Example 74A, 8-[(1R)-1-(2-Isothiazol-5-ylanilino)ethyl]-3,6-dimethyl-2-(3-pyridyl)-chromen-4-one] reads less than 500 nM.
As for `Cc1cc([C@@H](C)Nc2ccc(Cl)nc2C)c2oc(-c3ccc4cn[nH]c4c3)c(C)c(=O)c2c1` [Example 78B, 8-[(1R)-1-[(6-Chloro-2-methyl-3-pyridyl)amino]ethyl]-2-(1H-indazol-6-yl)-3,6-dimethyl-chromen-4-one], the IC50 was less than 500 nM.
The result for `Cc1cc([C@@H](C)Nc2ccc(Cl)nc2S(C)(=O)=O)c2oc(-c3ccccc3)c(C)c(=O)c2c1` [Example 80B, 8-[(1R)-1-[(6-Chloro-2-methylsulfonyl-3-pyridyl)amino]ethyl]-3,6-dimethyl-2-phenyl-chromen-4-one] reads less than 500 nM; that for `CNC(=O)c1ccccc1N[C@H](C)c1cc(C)cc2c(=O)c(C)c(-c3cccnc3)oc12` [Example 83A, 2-[[(1R)-1-[3,6-Dimethyl-4-oxo-2-(3-pyridyl)chromen-8-yl]ethyl]amino]-N-methyl-benzamide], less than 500 nM; that for `CNC(=O)c1ccccc1N[C@H](C)c1cc(C)cc2c(=O)c(C)c(-c3ccc4nn(C)cc4c3)oc12` [Example 84A], less than 500 nM.
The result for `CNC(=O)c1ccccc1N[C@H](C)c1cc(C)cc2c(=O)c(C)c(-c3cccc(F)c3)oc12` [Example 86A, 2-[[(1R)-1-[2-(3-Fluorophenyl)-3,6-dimethyl-4-oxo-chromen-8-yl]ethyl]amino]-N-methyl-benzamide] reads less than 500 nM.
The result for `CONS(=O)(=O)c1ccccc1N[C@H](C)c1cc(C)cc2c(=O)c(C)c(-c3ccccc3)oc12` [Example 129C, 2-[[(1R)-1-(3,6-Dimethyl-4-oxo-2-phenyl-chromen-8-yl)ethyl]amino]-N-methoxy-benzenesulfonamide] reads less than 500 nM.
On to `Cc1cc([C@@H](C)Nc2ccc(Cl)nc2C(=O)NS(N)(=O)=O)c2oc(-c3ccccc3)c(C)c(=O)c2c1` [Example 130C, 6-Chloro-3-[[(1R)-1-(3,6-dimethyl-4-oxo-2-phenyl-chromen-8-yl)ethyl]amino]-N-sulfamoyl-pyridine-2-carboxamide], for which the IC50 was less than 500 nM.
For `Cc1cc([C@@H](C)Nc2ccc(Cl)nc2S(N)(=O)=O)c2oc(-c3ccccc3)c(-c3cnoc3)c(=O)c2c1` [Example 132C], the IC50 is less than 500 nM.
Consider `Cc1cc([C@@H](C)Nc2ccc(Cl)nc2S(N)(=O)=O)c2oc(-c3ccc(=O)n(C(C)C)c3)c(C)c(=O)c2c1` [Example 133C], for which the IC50 is less than 500 nM.
`Cc1cc([C@@H](C)Nc2cccnc2N(C)C)c2oc(-c3cccnc3)c(C)c(=O)c2c1` [Example 168C, 8-[(1R)-1-[[2-(Dimethylamino)-3-pyridyl]amino]ethyl]-3,6-dimethyl-2-(3-pyridyl)chromen-4-one] registered an IC50 of less than 500 nM.

The values are drawn from patent US20240018115A1, “ALLOSTERIC CHROMENONE INHIBITORS OF PHOSPHOINOSITIDE 3-KINASE (PI3K) FOR THE TREATMENT OF DISEASE” (Petra Pharma Corporation, priority 2022, published 2024).
